This note sets out measurements from patent US20250026733A1, “DEUTERATED ANALOGS OF PYROLE INHIBITORS OF ERK, SYNTHESIS THEREOF AND INTERMEDIATES THERETO” (BIOMED VALLEY DISCOVERIES, INC., priority 2022, published 2025).

Where two headings read alike, the source gives them in different places. Marks after values point to notes of the source that are not given here.

The test system of data set [1] is A375 cells. In words: A375 proliferation assay (Cell TiterGlo). The class given is cell-based. The conditions noted are these: Homo sapiens, A-375, 72 hours. The method, then:
Mechanism of Action (MOA) Cell Assay—A375 Cell Proliferation, pERK/ERK and pRSK/RSK Analysis:
Briefly, A375 cells were plated at 10,000 cells/well in three 96 well plates. Plates were incubated overnight at 37° C. and allowed to recover. Cells were washed with 150 μL of DPBS and 90 μL of fresh media was added to each well. The cells were then treated with a dose response of the selected compounds. Compounds were diluted from stock concentrations (10 mM in DMSO). Serial dilutions were made in DMSO, yielding 8 total different concentrations per compound. At time of compound addition, the control plate was analyzed using Cell TiterGlo to set baseline for proliferation. Compound treated cells were allowed to grow at 37° C./5% CO2 for 72 hours then analyzed using Cell TiterGlo according to kit protocol.

Data set [2] has as its system pRSK/RSK in A375 cells. In words: A375 pRSK/RSK dose response study (ELISA). The class given is cell-based. To be noted: Homo sapiens, A-375, pRSK and total RSK ELISA. The protocol:
A375 pRSK/RSK Dose Response Study
Briefly, A375 cells were plated at 30,000 cells/well in 2×96 well plates, allowed to recover overnight, washed and fed fresh media the next day then treated with a dose response of the selected compounds. Following the determined pretreatment with the compounds at 37° C./5% CO2 the media was aspirated, and cells lysed with cold, complete MSD lysis buffer. pRSK and total RSK were analyzed using CST/PathScan pRSK and total RSK ELISAS according to the respective kit protocols. All samples were analyzed at 90% of remaining sample in pRSK and 10% of remaining sample in total RSK ELISA, which was performed following kit protocols.

Data set [3] can be described thus: Pharmacokinetics and metabolite formation in rats. The format is in vivo, rat. To be noted: for AUC(0-t) / half-life: both sexes. The method, then:
Ulixertinib, Formulas 18A, 19A, and 21A were dosed twice daily (12 hours apart, ±30 minutes) for five consecutive days (10 doses/animal) to rats via oral gavage (PO). Each compound was administered at a dose of 12.5 mg/kg to 6 rats (3 male/3 female, N=6 rats/compound). Each compound was formulated in 1% (w/v) carboxymethylcellulose (CMC) in water at a concentration of 1.25 mg/mL. Following the second (p.m.) dose on Day 5, blood samples were collected from each rat at approximately 0.5, 1, 2, 4, 6, 8, and 12 hours post-dose. Blood samples were centrifuged to obtain plasma. Plasma samples were analyzed for concentrations of the dosed compounds and selected metabolites using an established LC-MS/MS method. The lower limit of quantitation of each compound was 1.00 ng/mL. The rat half-life values (determined by non-compartmental analysis using WinNonlin software) for each compound are shown in Table 7, and the areas under curve from time 0 to hour 12 (AUC0-12), calculated using the linear trapezoidal rule, for each dosed compound and selected metabolites are presented in Table 8.

Data set [4] can be described thus: Steady-state exposure of ulixertinib and metabolites in human subjects. The format is in vivo. The source says: (§1) The steady state exposure levels of non-isotopically enriched parent ulixertinib and related metabolites in rat (day 5) and human subjects (day 15) is provided in TABLE 1 below: […]
Data set [5] is described as follows: Steady-state exposure of ulixertinib and metabolites in rat. The format is in vivo.
Text: as §1

As for `[2H]C([2H])([2H])C([2H])(Nc1cc(-c2c[nH]c(C(=O)N[C@H](CO)c3cccc(Cl)c3)c2)c(Cl)cn1)C([2H])([2H])[2H]` [Formula 18, 4-(5-chloro-2-((propan-2-yl-d7)amino)pyridin-4-yl)-N-(1-(3-chlorophenyl)-2-hydroxyethyl)-1H-pyrrole-2-carboxamide], the half-maximal inhibitory concentration (IC50) in data set [1] was 300 nM; in data set [2] it was 40 nM.
With `Cl.[2H]C(C)(C)Nc1cc(-c2c[nH]c(C(=O)N[C@H](CO)c3cccc(Cl)c3)c2)c(Cl)cn1` [Formula 21A], in data set [3] (rat, in vivo, po, 12.5 mg/kg), the AUC(0-t) amounted to 193 µg·h/mL and the half-life was 3.81 h. Further, in data set [3] (both, rat, in vivo), the “AUC0-12 M2, percent change relative to Ulixertinib” value is “(−17%^a)”; the “AUC0-12 M3, percent change relative to Ulixertinib” value is reported as “(+8%^a)”; the “AUC0-12 M6, percent change relative to Ulixertinib” value was “(+7%^a)”; the “AUC0-12 Parent, percent change relative to Ulixertinib” value is recorded as “(+12%^a)”. In data set [3] (both, rat, in vivo), the “Half-life, percent change relative to Ulixertinib” value is reported as “(+4%^a)” and the “longer mean half-life than ulixertinib” value is on record as 4%.
As for `CC(C)Nc1cc(-c2c[nH]c(C(=O)N[C@H](CO)c3cccc(Cl)c3)c2)c(Cl)cn1` [Ulixertinib, reference compound], the “% of total Ulixertinib related exposure” value in data set [4] (day 15, steady state) worked out at 37.5%; in data set [5] (day 5, steady state), 91.1%. For the same molecule, in data set [4] (in vivo, day 15, non-isotopically enriched ulixertinib and related metabolites, read-out: Steady-State AUC (Mean ± SD)), the AUC at 15 day came out at 29.6 ± 16.1 µg·h/mL. The area under the curve (AUC) at 5 day in data set [5] (in vivo, day 5, non-isotopically enriched ulixertinib and related metabolites, read-out: Steady-State AUC (Mean ± SD)) stood at 179 ± 49 µg·h/mL. In addition, the 50% inhibitory concentration (IC50) is 250 nM in data set [1] and 37 nM in data set [2]. Besides, the AUC(0-t) in data set [3] (rat plasma, 12.5 mg/kg PO twice daily for five days, after second dose on Day 5, N=6, read-out: AUC0-12, Parent, Mean) turned out to be 173 µg·h/mL. In data set [3] (rat plasma, 12.5 mg/kg PO twice daily for five days, after second dose on Day 5, N=6, read-out: Half-life, t1/2, Mean (converted)), the half-life is 3.67 h.
